Values belong to the compound of their own block, whether it stands above or below them.
Tests used:
Assay in all cases: competitive isoTOP-ABPP
Type in all cases: binding
[1] = target: T1, LDHB L-lactate dehydrogenase B chain (Homo sapiens, UniProt P07195); details: for isoTOP-ABPP ratio (R) at liganded lysine P07195_K82 / isoTOP-ABPP ratio (R) at liganded lysine P07195_K244: sol, 231
T1 construct: isoTOP-ABPP experiments performed in cell lysates (in vitro); endogenous in cells; host or cells: MDA-MB-231 soluble lysate
T1 sequence (P07195 whole entry): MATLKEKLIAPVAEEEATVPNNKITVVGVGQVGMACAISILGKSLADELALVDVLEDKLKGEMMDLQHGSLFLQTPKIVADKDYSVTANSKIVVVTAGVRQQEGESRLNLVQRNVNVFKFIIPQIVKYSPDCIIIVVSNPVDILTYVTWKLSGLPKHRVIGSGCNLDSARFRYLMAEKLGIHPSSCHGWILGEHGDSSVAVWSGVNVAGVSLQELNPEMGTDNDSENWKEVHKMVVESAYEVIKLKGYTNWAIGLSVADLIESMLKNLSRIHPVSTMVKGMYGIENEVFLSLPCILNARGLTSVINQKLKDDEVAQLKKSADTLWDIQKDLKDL
How it was run: (§1)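 Lysate + fragment (50 μM activated ester / 100 μM guanidinylating agent) or DMSO → 0.1 mM STP-alkyne, 1 h, RT → CuAAC to TEV tags (compound light, DMSO heavy) → LC-MS. R = heavy/light MS1 area; liganded lysine if R≥4.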

[2] = target: T2, TTR Transthyretin (Homo sapiens, UniProt P02766); details: for R value (DMSO/fragment) for probe 1 labeling: P02766_K35; for R value (DMSO/fragment) for probe 1 labeling / isoTOP-ABPP ratio (R) at liganded lysine P02766_K35 / isoTOP-ABPP reactivity ratio at lysine P02766_K35: 50 uM, in vitro; for R value (DMSO/fragment) for probe 1 labeling / isoTOP-ABPP reactivity ratio at lysine P02766_K35: 231 sol; for isoTOP-ABPP ratio (R) at liganded lysine P02766_K35: sol, 231
T2 construct: isoTOP-ABPP experiments performed in cell lysates (in vitro); endogenous in cells; host or cells: MDA-MB-231 soluble lysate
How it was run: as §1

[3] = target: T3, RTN4 Reticulon-4 (Homo sapiens, UniProt Q9NQC3); details: for isoTOP-ABPP ratio (R) at liganded lysine Q9NQC3_K1104: sol, 231
T3 construct: endogenous in cells; host or cells: MDA-MB-231 lysate
T3 sequence (Q9NQC3 1-1192): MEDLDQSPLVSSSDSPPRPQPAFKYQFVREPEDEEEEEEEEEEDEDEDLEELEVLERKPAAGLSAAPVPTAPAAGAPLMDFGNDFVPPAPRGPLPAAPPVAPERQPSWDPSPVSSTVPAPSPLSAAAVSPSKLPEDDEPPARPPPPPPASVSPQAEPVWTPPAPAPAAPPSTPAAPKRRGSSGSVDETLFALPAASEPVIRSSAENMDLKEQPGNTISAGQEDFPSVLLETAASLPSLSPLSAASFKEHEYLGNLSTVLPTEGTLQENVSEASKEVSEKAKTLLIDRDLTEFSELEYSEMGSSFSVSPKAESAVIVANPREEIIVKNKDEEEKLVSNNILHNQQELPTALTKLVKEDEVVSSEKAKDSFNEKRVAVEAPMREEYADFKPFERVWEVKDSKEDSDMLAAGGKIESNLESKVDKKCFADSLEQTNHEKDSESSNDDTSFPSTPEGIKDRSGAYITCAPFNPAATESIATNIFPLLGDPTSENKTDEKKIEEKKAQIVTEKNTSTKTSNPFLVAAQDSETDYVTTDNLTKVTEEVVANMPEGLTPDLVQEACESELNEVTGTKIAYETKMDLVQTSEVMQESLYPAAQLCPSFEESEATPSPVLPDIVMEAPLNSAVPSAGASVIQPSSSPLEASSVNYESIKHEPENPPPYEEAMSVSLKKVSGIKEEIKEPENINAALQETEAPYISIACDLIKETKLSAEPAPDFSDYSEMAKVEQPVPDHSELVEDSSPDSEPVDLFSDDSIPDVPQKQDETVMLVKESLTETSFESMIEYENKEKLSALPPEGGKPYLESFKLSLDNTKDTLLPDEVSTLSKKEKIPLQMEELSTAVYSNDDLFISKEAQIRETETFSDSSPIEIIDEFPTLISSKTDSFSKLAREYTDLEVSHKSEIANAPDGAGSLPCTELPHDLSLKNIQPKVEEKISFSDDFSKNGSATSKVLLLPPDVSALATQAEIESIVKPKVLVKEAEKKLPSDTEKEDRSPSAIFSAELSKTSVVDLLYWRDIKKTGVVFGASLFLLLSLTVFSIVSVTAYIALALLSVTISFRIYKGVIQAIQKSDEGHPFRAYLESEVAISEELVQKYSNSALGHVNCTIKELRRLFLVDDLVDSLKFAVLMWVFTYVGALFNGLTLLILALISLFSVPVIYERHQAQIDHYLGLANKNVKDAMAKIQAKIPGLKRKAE
How it was run: as §1

[4] = P07195_K82, 50 uM, 231 sol, in vitro
[5] = P07195_K244, 50 uM, 231 sol, in vitro

- R value (DMSO/fragment) for probe 1 labeling [1, 4]: 0.8
- R value (DMSO/fragment) for probe 1 labeling [1, 5]: 1.0
- R value (DMSO/fragment) for probe 1 labeling [2]: 2.6
SMILES: Cn1cc(CC(=O)Oc2c(F)c(F)c(F)c(F)c2F)c2ccccc21 [fragment 22, Pentafluorophenyl 2-(1-methyl-1H-indol-3-yl)acetate]

SMILES: O=C(Oc1ccc([N+](=O)[O-])cc1[N+](=O)[O-])c1ccc2ccccc2n1 [fragment 35, 2,4-Dinitrophenyl quinoline-2-carboxylate]
- isoTOP-ABPP ratio (R) at liganded lysine P07195_K82 ([1]; 50 uM, in vitro): 0.6
- isoTOP-ABPP ratio (R) at liganded lysine Q9NQC3_K1104 ([3]; 50 uM, in vitro): 6.0
- isoTOP-ABPP ratio (R) at liganded lysine P02766_K35 [2]: 15.6

- isoTOP-ABPP reactivity ratio at lysine Q9NQC3_K1104 ([3]; 50 uM, 231 sol, in vitro): 2.3
SMILES: O=C(Oc1c(F)c(F)c(F)c(F)c1F)C1CCN(C(=O)OCc2ccccc2)CC1 [fragment 24, 1-Benzyl 4-(pentafluorophenyl) piperidine-1,4-dicarboxylate]

- R value (DMSO/fragment) for probe 1 labeling [1, 4]: 1.2
- R value (DMSO/fragment) for probe 1 labeling [1, 5]: 1.0
- R value (DMSO/fragment) for probe 1 labeling ([3]; Q9NQC3_K1104, 50 uM, 231 sol, in vitro): 2.4
- R value (DMSO/fragment) for probe 1 labeling [2]: 1.4
SMILES: O=C(Oc1c(F)c(F)c(F)c(F)c1F)C(c1ccccc1)c1ccccc1 [fragment 20, Pentafluorophenyl 2,2-diphenylacetate]

SMILES: O=C(Oc1ccc([N+](=O)[O-])cc1[N+](=O)[O-])c1cc(C(F)(F)F)cc(C(F)(F)F)c1 [fragment 31, 2,4-Dinitrophenyl 3,5-bis(trifluoromethyl)benzoate]
- isoTOP-ABPP reactivity ratio at lysine Q9NQC3_K1104 ([3]; 50 uM, 231 sol, in vitro): 6.1
- isoTOP-ABPP reactivity ratio at lysine P02766_K35 [2]: 16.1
- targeting of K35 ([2]; TTR K35): preferentially targeted

- isoTOP-ABPP ratio, lysine P07195_K82 ([1]; 100 uM_231_sol_in vitro): 0.9
- isoTOP-ABPP ratio, lysine P07195_K244 ([1]; 100 uM_231_sol_in vitro): 1.1
- isoTOP-ABPP ratio, lysine Q9NQC3_K1104 ([3]; 100 uM_231_sol_in vitro): 1.4
- isoTOP-ABPP ratio, lysine P02766_K35 ([2]; 100 uM_231_sol_in vitro): 2.1
SMILES: CC(C)(C)OC(=O)N=C(NC(=O)OC(C)(C)C)n1cccn1 [fragment 50, reference compound]

SMILES: O=C(Oc1ccc([N+](=O)[O-])cc1[N+](=O)[O-])c1ccccc1Nc1cccc(C(F)(F)F)c1 [fragment 40, 2,4-Dinitrophenyl 2-((3-(trifluoromethyl)phenyl)amino)benzoate]
- isoTOP-ABPP ratio (R) at liganded lysine P07195_K82 ([1]; 50 uM, in vitro): 20.0
- isoTOP-ABPP ratio (R) at liganded lysine Q9NQC3_K1104 ([3]; 50 uM, in vitro): 2.1

SMILES: O=C(Oc1ccc([N+](=O)[O-])cc1[N+](=O)[O-])C(c1ccccc1)c1ccccc1 [fragment 30, 2,4-Dinitrophenyl 2,2-diphenylacetate]
- isoTOP-ABPP reactivity ratio at lysine P07195_K82 ([1]; 50 uM, 231 sol, in vitro): 20.0
- isoTOP-ABPP reactivity ratio at lysine P07195_K244 ([1]; 50 uM, 231 sol, in vitro): 1.2
- isoTOP-ABPP reactivity ratio at lysine P02766_K35 [2]: 1.5

SMILES: O=C(Oc1ccc([N+](=O)[O-])cc1[N+](=O)[O-])c1ccc(Oc2ccccc2)cc1 [fragment 39, 2,4-Dinitrophenyl 4-phenoxybenzoate]
- isoTOP-ABPP ratio (R) at liganded lysine P07195_K82 ([1]; 50 uM, in vitro): 20.0
- isoTOP-ABPP ratio (R) at liganded lysine P07195_K244 ([1]; 50 uM, in vitro): 1.0
- isoTOP-ABPP ratio (R) at liganded lysine P02766_K35 [2]: 2.2

SMILES: O=C(Oc1ccc([N+](=O)[O-])cc1[N+](=O)[O-])c1ccc(-c2ccccc2)cc1 [fragment 37, 2,4-Dinitrophenyl [1,1′-biphenyl]-4-carboxylate]
- isoTOP-ABPP ratio (R) at liganded lysine P07195_K82 ([1]; 50 uM, in vitro): 0.8
- isoTOP-ABPP ratio (R) at liganded lysine P07195_K244 ([1]; 50 uM, in vitro): 0.8
- isoTOP-ABPP ratio (R) at liganded lysine Q9NQC3_K1104 ([3]; 50 uM, in vitro): 3.4

SMILES: COc1cc(CCC(=O)Oc2ccc([N+](=O)[O-])cc2[N+](=O)[O-])cc(OC)c1OC [fragment 33, 2,4-Dinitrophenyl 3-(3,4,5-trimethoxyphenyl)propanoate]
- isoTOP-ABPP reactivity ratio at lysine Q9NQC3_K1104 ([3]; 50 uM, 231 sol, in vitro): 4.3
- isoTOP-ABPP reactivity ratio at lysine P02766_K35 [2]: 2.7

SMILES: CC(=O)Oc1ccc([N+](=O)[O-])cc1[N+](=O)[O-] [fragment 43, 2,4-Dinitrophenyl acetate]
- isoTOP-ABPP ratio (R) at liganded lysine Q9NQC3_K1104 ([3]; 50 uM, in vitro): 1.4

- isoTOP-ABPP reactivity ratio at lysine Q9NQC3_K1104 ([3]; 50 uM, 231 sol, in vitro): 1.0
SMILES: CCn1cc(C(=O)Oc2c(F)c(F)c(F)c(F)c2F)c(=O)c2ccc(C)nc21 [fragment 28, Pentafluorophenyl 1-ethyl-7-methyl-4-oxo-1,4-dihydro-1,8-naphthyridine-3-carboxylate]
